The nature of this assay: cell-permeable autofluorescent compounds in GFP channel, dose response, artefact control, imaging, high-content imaging (AID 2124).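 As to all read-outs here: cells exposed to compound for 48 hours before fixing.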 The settings on record: cells, GFP-channel autofluorescence, high-content imaging, at 10 µM; for z-score: stronger effect = higher value.

Inconclusive results are not listed. Activity calls are given as the source filed them. No rule for the calls is given here; tested in MIN6 cells.

For the compound `CN1CCNC(=O)C1CC(=O)NCCC1=CCCCC1` (stereo not drawn), the z-score was -0.38 (inactive) and the cell count was determined as 3160 cells.
With `Nc1ccc(-c2nc3nc(N)nc(N)c3nc2-c2ccc(N)cc2)cc1`, the z-score is -0.32 (inactive) and the cell count stood at 2980 cells.
Regarding `CCC(=O)Nc1ccc2c(c1)ncn2-c1ccccc1`, the z-score is -0.34 (inactive) and the cell count amounted to 3260 cells.
The matching figures for `CC(=O)c1sc2nc(-c3cccs3)cc(C(F)(F)F)c2c1N`: 0.17 and 3260 cells.
For the compound `COc1ccc2nc(SCC(=O)Nc3c(C)cccc3C)[nH]c2c1`, the z-score is -0.39 (inactive) and the cell count was 3480 cells.
Regarding `CCOC(=O)CC1C(=O)NCCN1c1nc2c(C)cccn2c(=O)c1/C=C1\SC(=S)N(C(C)CC)C1=O` (stereo not drawn), the z-score was 0.45 and the cell count was 3100 cells.
Regarding `CCc1cccc2cc3c(N)c(C(=O)Nc4ccc(S(=O)(=O)N5CCCC5)cc4)sc3nc12`, the z-score is 0.3 and the cell count turned out to be 2430 cells.
For `CCOC(=O)c1cnn(-c2cc(C)nc3c(-c4ccccc4)cnn23)c1N`, the z-score was -0.39 (inactive) and the cell count stood at 3280 cells.
For `CC1=Nc2ccccc2/C1=C/c1sc(=S)n(-c2cccc(C(=O)O)c2)c1O`, the z-score is -0.37 (inactive) and the cell count was 3380 cells.
For `O=Nc1c(O)n(Cc2ccc(Cl)cc2)c2ccccc12`, the z-score was -0.33 (inactive) and the cell count is 3420 cells.
In the same order, the values of `COc1cccc(S(=O)(=O)NCc2ccc(C(=O)Nc3ccc(Cl)c(Cl)c3)cc2)c1` are -0.33 (inactive) and 2580 cells.
On to `COc1cc(N2CCCC2)c(OC)cc1/C=C(/C#N)c1cccc(Br)c1`, for which the z-score was 0.19 and the cell count came out at 3340 cells.
As to `CCOC(=O)N1CCN(S(=O)(=O)c2ccc3c(c2)oc(=O)n3C)CC1`, the z-score is -0.31 (inactive) and the cell count stood at 2780 cells.
The matching figures for `O=S(=O)([O-])CCC[n+]1c(/C=C\Nc2ccccc2)oc2ccc(-c3ccccc3)cc21`: 1.34 and 3120 cells.
With `Cc1ccc(S(=O)(=O)Nc2ccc(=O)n(Cc3ccc(Cl)c(Cl)c3)c2)cc1`, the z-score is -0.33 (inactive) and the cell count was found to be 3230 cells.
For `COc1cc2c3nnc(-c4ccccc4)c-3cn(Cc3ccccc3F)c2cc1OC`, the z-score is 3.78 and the cell count turned out to be 770 cells.
In the case of `COc1ccccc1NS(=O)(=O)c1cc([N+](=O)[O-])ccc1N/N=C/c1sc(N2CCOCC2)nc1-c1ccccc1`, the z-score was 0.22 and the cell count is 2550 cells.
In the case of `CCN(CC)c1ccc(/C=C2/SC(=O)N(C(C)C)C2=O)o1`, the z-score is 0.73 and the cell count came out at 596 cells.
As for `Cc1[nH]c2ccccc2c1/C=N/Nc1ccc([N+](=O)[O-])cc1S(=O)(=O)Nc1ccc(Cl)cc1`, the z-score was 0.35 and the cell count stood at 2050 cells.
With `CCCCN1C(=O)C2(NNc3ccccc3O2)c2ccccc21` (stereo not drawn), the z-score is -0.31 (inactive) and the cell count was 2820 cells.
For the compound `CCCCC1=CC2=C(c3ccco3)C(=O)C(C)(OC(=O)c3ccc(OC)cc3)C(=O)C2=CN1CC(C)C` (stereo not drawn), the z-score is -0.39 (inactive) and the cell count is 2870 cells.
For the compound `Clc1ccc2oc(-c3ccccn3)nc2c1`, the z-score is -0.24 (inactive) and the cell count was 2940 cells.
In the case of `CCOC(=O)c1sc(NC(=O)c2sccc2C)cc1C`, the z-score is -0.39 (inactive) and the cell count was determined as 3300 cells.
For the compound `Cc1cc(NC(=O)/C(C#N)=C/c2ccc(-c3ccc(SC(F)F)cc3)o2)n(-c2ccccc2)n1`, the z-score was 0.3 and the cell count amounted to 2190 cells.
Take `N#C/C(=C/c1ccc(-c2ccc(S(N)(=O)=O)cc2)o1)c1nc2ccccc2s1`: the z-score is 1.86 and the cell count turned out to be 1680 cells.
`CCCS(=O)(=O)N1CCC(C(=O)N2CCOCC2)CC1`: the z-score is -0.38 (inactive) and the cell count is 2930 cells.
For `O=S(=O)(Cc1ccc(Cl)cc1)c1ccccc1-c1nnc(-c2ccccc2)o1`, the z-score is -0.39 (inactive) and the cell count worked out at 3320 cells.
In the same order, the values of `CCCCn1c(=O)[nH]c2nc3cc(N)ccc3nc2c1=O` are -0.32 (inactive) and 3540 cells.
On to `CCCCCCc1cc2cc(-c3nnc(-c4ccccc4O)o3)c(=O)oc2cc1O`, for which the z-score is -0.21 (inactive) and the cell count came to 2760 cells.
As to `CC1CC(C)CN(C(=O)c2cccc3c2-c2ccccc2C3=O)C1` (stereo not drawn), the z-score is -0.38 (inactive) and the cell count amounted to 3240 cells.
On to `Cc1cccc(NC(=O)Nc2ccc(C#N)cc2)n1`, for which the z-score is -0.32 (inactive) and the cell count was determined as 2800 cells.
Turning to `Cc1cccc(NC(=O)/C=C/c2ccc([N+](=O)[O-])s2)c1`, the z-score is 0.41 and the cell count was 244 cells.
In the case of `O=S(=O)(Nc1cc2nc3ccccc3nc2n1Cc1ccccc1)c1ccc(Cl)cc1`, the z-score is 0.09 and the cell count amounted to 777 cells.
With `COc1ccc(NC(=O)c2[nH]c(C)c(C(C)=O)c2C)cc1Cl`, the z-score was -0.33 (inactive) and the cell count was 3410 cells.
Regarding `COc1ccc(OCC(=O)Nc2ccc(S(=O)(=O)Nc3cc(C)nc(C)n3)cc2)cc1`, the z-score was -0.33 (inactive) and the cell count worked out at 3070 cells.
As to `CCc1cc(C(=O)OC)c(NC(=O)CC2Sc3ccc(C(F)(F)F)cc3NC2=O)s1` (stereo not drawn), the z-score was -0.39 (inactive) and the cell count turned out to be 2390 cells.
`Cc1cccc2sc(NNC(=O)c3ccc4c(c3)OCCO4)nc12`: the z-score was -0.39 (inactive) and the cell count was found to be 3230 cells.
Regarding `COc1ccc(C2/C=C\CN(S(=O)(=O)c3cccc4cccnc34)CC(=O)N2Cc2ccc(F)cc2)cc1` (stereo not drawn), the z-score was -0.39 (inactive) and the cell count amounted to 3760 cells.
As for `CSc1c(C#N)c(N)nc2sc(C(=O)c3ccc(Cl)c(Cl)c3)c(N)c12`, the z-score was -0.28 (inactive) and the cell count was 2770 cells.
For the compound `O=[N+]([O-])c1ccc(N(c2ccccc2)c2ccccc2)cc1`, the z-score was -0.32 (inactive) and the cell count was found to be 2510 cells.
On to `CN(C)C(=O)CN(c1ccc2c(c1)OCO2)S(C)(=O)=O`, for which the z-score was -0.33 (inactive) and the cell count was 2880 cells.
In the same order, the values of `Cc1oc(C)c2c(=O)ccc3c(c12)OC(N)=C(C#N)C3c1ccccc1` (stereo not drawn) are -0.38 (inactive) and 2830 cells.
Regarding `Cc1noc(C)c1CS(=O)(=O)c1ccc(Br)cc1`, the z-score was -0.26 (inactive) and the cell count was found to be 2900 cells.
As to `CC[n+]1c(/C=C/C=C/N(C(C)=O)c2ccccc2)sc2cc(OC)ccc21`, the z-score was 7.8 and the cell count was determined as 111 cells.
For `CCC(C)N1C(=O)/C(=C/c2c(NCCCOC(C)C)nc3c(C)cccn3c2=O)SC1=S` (stereo not drawn), the z-score was 1.19 and the cell count was 2350 cells.
Take `CCOC(=O)/C(=C\C=C1/Sc2cc(OCC)c(OCC)cc2N1CC)C(C)=O`: the z-score is 0.55 and the cell count was 2790 cells.
As to `COc1ccc(/C(O)=C/c2nc3ccc(C(=O)NCCc4cccc(C)c4)cc3[nH]c2=O)cc1OC`, the z-score is 0.56 and the cell count worked out at 1180 cells.
As for `N#CCc1nc(CSc2nc3ccccc3s2)cs1`, the z-score was -0.32 (inactive) and the cell count turned out to be 2980 cells.
`Cc1ccc2nc(/C(C#N)=C\c3ccc(N4CCOCC4)o3)[nH]c2c1`: the z-score was 0.7 and the cell count was 2680 cells.
For `O=c1[nH]c(/C=C/c2ccccc2OC(F)F)nc2c1cnn2-c1ccccc1`, the z-score was -0.38 (inactive) and the cell count turned out to be 2240 cells.
Take `Cc1ccc(Nc2nc3c([nH]2)c(=O)n(C)c(=O)n3C)cc1`: the z-score was -0.39 (inactive) and the cell count was determined as 2720 cells.
As for `Nc1c(C(=O)Nc2nccs2)sc2nc(-c3cccs3)cc(C(F)(F)F)c12`, the z-score was 0.39 and the cell count is 2940 cells.
As to `Nc1c(C(=O)c2cccs2)sc2nsc(SCCN3CCCCC3)c12`, the z-score is 0.3 and the cell count is 2930 cells.
Consider `O=C1S/C(=C/c2ccc(N3CCOCC3)o2)C(=O)N1Cc1c(F)cccc1Cl`, for which the z-score is 1.3 and the cell count is 3280 cells.
Consider `O=C(COC(=O)c1cc(S(=O)(=O)N2CCOCC2)ccc1O)NCC1CCCO1` (stereo not drawn), for which the z-score was -0.33 (inactive) and the cell count worked out at 3080 cells.
`Cc1ccc(S(=O)(=O)c2cccc(S(=O)(=O)N3CCCC3)c2)cc1S(=O)(=O)N1CCCC1`: the z-score is -0.33 (inactive) and the cell count was determined as 2360 cells.
The matching figures for `Cc1cc(C)cc(N=Cc2[nH]c3ccc(Br)c(Cl)c3c2O)c1`: 0.1 and 2820 cells.
On to `CC(=O)C(=Cc1cn(-c2ccccc2)nc1-c1ccccc1)C(C)=O`, for which the z-score was -0.32 (inactive) and the cell count worked out at 3020 cells.
For the compound `COc1ccc2cc3cc(C(=O)NCc4ccccn4)oc3nc2c1`, the z-score is -0.38 (inactive) and the cell count came out at 3310 cells.
In the same order, the values of `CC(C)(C)c1ccc(OCC(=O)Nc2ccc3c4c(cccc24)C(=O)NC3=O)cc1` are -0.31 (inactive) and 2490 cells.
Turning to `Cc1ccc(/C=[N+](\[O-])c2ccc(N(C)C)cc2)c2nsnc12`, the z-score was -0.38 (inactive) and the cell count was 1880 cells.
Regarding `COC(=O)c1sc2ccccc2c1-n1cccc1C(=O)C(=O)Nc1ccc(F)cc1`, the z-score was -0.38 (inactive) and the cell count was determined as 3000 cells.
In the same order, the values of `CCCOc1cc(N(CC)CC)ccc1/C=C(/C#N)c1nc2ccc(C)cc2[nH]1` are 0.73 and 1370 cells.
On to `O=C1C2C3C=CC(C3)C2C(=O)N1CCc1ccccc1` (stereo not drawn), for which the z-score was -0.33 (inactive) and the cell count was determined as 3430 cells.
